Tested on: mouse fibroblast (L929 cells, IFO 50409)
Assay: TNF-α-induced apoptosis (cell death) of L929 cells, crystal violet staining of living cells
Type: cell-based
Details: test compound final concentration 1 μM, 72 hours cultivation, relative to dexamethasone (final concentration 1.1 μM) = 100
Protocol: Apoptosis (cell death) was induced by adding TNF-α to cells. The inhibitory activity of a test compound to this apoptosis was determined by using known dexamethasone having an apoptosis inhibitory activity as the standard.
Namely, 25 μl of a culture medium (PRMI-1640, produced by Nikken Seibutsu Igaku Kenkyusho, Japan) (containing 10 weight % of fetal bovine serum) was added to each well of a 96-well microplate. Then, added was 2 μl of a solution prepared by 20 volume fold dilution of dimethylformamide (in the case of Compound No. 16) or dimethylsulfoxide (in the case of Compound Nos. 2, 4, 6, 8, 13) solution of a test compound (concentration of the test compound: 1 mM) with the above culture medium.
Subsequently, 25 μl of a solution prepared by dissolving TNF-α (Genzyme, USA)(40 ng/ml culture medium) in the above culture medium, and 50 μl of a suspension (2×10^5 cells/ml) prepared by suspending mouse fibroblast (L929 cells, IFO 50409) in the above culture medium were added, and then cells were cultivated for 72 hours at 37° C. in the presence of 5% carbon dioxide in air. The final concentration of the test compound during cultivation was 1 μM.
After cultivation, the culture medium was removed from the wells by aspiration, and 50 μl of a 5% (w/v) crystal violet/70% (v/v) methanol solution was added to each well to pigment the living cells. Then the wells were washed and dried. The apoptosis inhibitory activity of the test compound was obtained by determining the optical density by using an absorptiometer [Microplate Reader Model 450, produced by Bio-Rad] at the wavelength of 570 nm.
While, the apoptosis inhibitory activity of dexamethasone was obtained in the same manner as above except that the above test compound (final concentration: 1 μM) was replaced by dexamethasone (final concentration: 1.1 μM).
Then, the apoptosis inhibitory activity of each test compounds (final concentration: 1 μM) was calculated when the apoptosis inhibitory activity of dexamethasone (final concentration: 1.1 μM) was 100.

Row | Compound | Apoptosis inhibitory activity (%)
1 | CN(CCOc1ccc(CC2SC(=O)NC2=O)cc1)c1ccccn1 (stereo not drawn) [Compound No. 13, 5-[[4-[2-(methyl-2-pyridylamino)ethoxy]phenyl]methyl]-2,4-thiazolidinedione, reference compound] | 92
2 | Cn1nc(CCOc2ccc(CC3SC(=O)NC3=O)cc2)nc1-c1ccccc1 (stereo not drawn) [Compound No. 8, 5-[4-[2-(1-methyl-5-phenyl-1,2,4-triazol-3-yl)ethoxy]benzyl]-2,4-thiazolidinedione] | 70
3 | COc1cc(CCCC2OC(=O)NC2=O)ccc1OC(C)c1nc(-c2ccccc2)oc1C (stereo not drawn) [Compound No. 16, 5-[3-[3-methoxy-4-[1-(5-methyl-2-phenyl-4-oxazolyl)ethoxy]phenyl]propyl]-2,4-oxazolidinedione] | 71
4 | Cc1oc(-c2ccccc2)nc1COc1ccc(CCCC2OC(=O)NC2=O)cc1 (stereo not drawn) [Compound No. 6, 5-[3-[4-(5-methyl-2-phenyl-4-oxazolylmethoxy]phenyl]propyl]-2,4-oxazolidinedione] | 70
5 | COc1cc(CCCC2OC(=O)NC2=O)ccc1OCc1nc(-c2ccco2)oc1C (stereo not drawn) [Compound No. 4, 5-[3-[4-[2-(2-furyl)-5-methyl-4-oxazoly]methoxy]-3-methoxyphenyllpropyl]-2,4-oxazolidinedione] | 74
6 | Cc1oc(-c2ccc3ccccc3c2)nc1CCOc1ccc(CCCC2OC(=O)NC2=O)cc1 (stereo not drawn) [Compound No. 2] | 70

From US6555565B2, “Apoptosis inhibitor” (Takeda Chemical Industries, Ltd., priority 1997, dated 2003)
